Earlier results in patent US7329690B2, “Effectiveness of invertebrate pest-control agents” (FMC Corporation, priority 2001, dated 2008).

Which water solubility does the source give for O=[N+]([O-])NC1=NCCN1Cc1ccc(Cl)nc1 [imidacloprid] here?
Its water solubility is 610 ppm.
